Test results published in patent US5677296A, “Carbamic acid derivatives of substituted dibenzoxazepine compounds, pharmaceutical compositions and methods of use” (G.D. Searle & Co., priority 1995, dated 1997).

Legend:
[1] = tested on: phenylbenzoquinone (PBQ)-induced writhing in mice; assay: Writhing Assay (PBQ-induced writhing in mice, analgesic activity); format: in vivo, mouse (Charles River male albino mice); details: i.g.; for Writhing assay: number of mice out of eight or ten in which test compound produced analgesia: 30 mpk, 30 min before PBQ i.p., fraction of mice
Excerpt: The Writhing Assay is one of the most widely-used experimental procedures for measuring the analgesic activity of different narcotic and nonnarcotic analgesic agents, and involves the continuous, chemically-induced pain of visceral origin to an animal, such as a mouse or rat. [Gyires et al., Arch. int. Pharmacodyn, 267, 131-140 (1984); C. Vander Wende et al., Fed. Proc., 15, 494 (1956); Koster et al., Fed. Proc., 18, 412 (1959); and Witken et al., J. Pharmacol. exp. Ther., 133, 400-408 (1961).] Chemicals which may be used to induce this pain include phenylbenzoquinone (PBQ) and acetic acid. As a result of the chemical irritation to the animal, a characteristic stretching and writhing of the animal (dorsiflexion of the animal's back, extension of its hindlimbs and the strong contraction of its abdominal musculature) will generally occur. […] Drugs which reduce the number of writhes of the animal appear to restore the normal nociceptive threshold of the animal.
Charles River male albino mice, weighing 20 to 30 grams, were used in this assay.
Thirty minutes after intragastric administration to ten mice of 30 mg per kilogram of body weight of a compound of the present invention ("test compound"), […] per 10 g of body weight of a 0.025% w/v solution of PBQ was injected intraperitoneally into each mouse. Ten mice which were given saline in place of a test compound of the invention were used as a control group.
Five minutes later, each mouse was individually placed into a glass beaker for observation, and the number of writhes occurring during the following ten-minute period was counted.
A test compound was considered to have produced analgesia in a mouse if, in accordance with the conditions set forth above, and under the test criteria employed for this assay, after the administration of 30 mg per kilogram of body weight of a compound of the present invention to the mouse, the number of writhes elicited by a mouse injected with PBQ was equal to, or less than, one-half the median number of writhes recorded for the saline-treated control group of mice that day, as described by Taber in "Predictive Value of Analgesic Assays in Mice and Rats," Advances in Biochemical Psychopharmacology, 8, 191 (1974).
The results for the particular compounds of the present invention analyzed in this assay, and discussed in the examples identified below which correspond thereto, are presented in Table 1 hereinbelow as fractions under the heading "WRITHING ASSAY." The fractions indicate the number of mice out of eight or ten in which a test compound produced analgesia.
The standard initial screening dose of a test compound employed in this assay was 30 mpk […]. Generally, if this initial screening dose of the test compound produced analgesia in seven out of ten mice, then the effect of additional doses of the test compound on the writhing response was evaluated, and then the ED50 dose was generally calculated. (The slopes of the dose-response curves for all test compounds analyzed were compared as described by Tallarida and Murray, Manual of Pharmacologic Calculations, Page 11 (Springer Verlag, New York, 1981)).
All ED50 doses calculated are also presented in Table 1 hereinbelow under the heading "WRITHING ASSAY," but as whole numbers.

[2] = tested on: prostaglandin E2-induced contractions of guinea pig ileum; assay: Prostaglandin (PGE) Antagonism Assay (inhibition of prostaglandin E2-induced contractions of segments of guinea pig ileum); details: test compound 3 × 10^-6 M, 30 min incubation; dose ratio of PGE2 EC50 values; average where more than one determined
Method: (b) Prostaglandin (PGE) Antagonism Assay
In order to determine the effectiveness of several of the compounds of the present invention ("test compounds") as prostaglandin E2 antagonists,a prostaglandin antagonism assay was conducted, as described below, to determine the ability of these compounds to inhibit prostaglandin E2 -induced contractions of segments of guinea pig ileum.
Male albino guinea pigs weighing 200 to 500 grams were sacrificed by cervical dislocation. The ilea were then quickly removed from the guinea pigs and placed in a modified Tyrode solution, a solution which is known to those skilled in the art, containing one-half of the usual amount of magnesium ions.
Segments of ileum about 2 cm long were then cut and mounted in a 10 mL tissue bath containing the modified Tyrode solution. The solution was maintained at 37° C. and aerated with a gaseous mixture of 95% oxygen and 5% carbon dioxide. Data for a control prostaglandin E2 dose response curve plotting concentration of prostaglandin E2 versus the intensity of contractions, detected isotonically, was then obtained by experimentally adjusting the dose of the prostaglandin E2 being injected into the tissue bath, in a manner known by those of skill in the art.
Solutions or suspensions containing an initial concentration (3 micromolar) of a test compound in modified Tyrode solution ("test solutions/suspensions") were then separately substituted for the control bath solution. Each test solution/suspension was then kept in constant contact with the ileum tissue, except for brief periods to drain the bath in preparation for rinsing with fresh test solution/suspension. A second prostaglandin E2 dose response curve was then generated for prostaglandin E2 in the presence of a test compound.
A control dose response curve is produced in isolated segments of guinea pig ileum mounted in an automated apparatus with six concentrations of prostaglandin E2. A solution or suspension of test compound is substituted for the control bathing solution and is incubated for thirty minutes. An additional prostaglandin E2 dose response curve is then performed in the presence of the test compound. A dose ratio is calculated from the EC50 values obtained from duplicate replications on each concentration of the test compound.
A dose ratio of EC50 doses was calculated from the results of each test in a manner known by those of skill in the art, and described above.
The dose ratios reported in Table 1 represent an average of multiple dose ratios for those compounds for which more than one dose ratio was determined. The compounds of the present invention which were tested in this assay, and for which results are presented in Table 1, correspond to the particular examples specified in Table 1.
The pA2 value (a statistical constant which is a common measure of expressing the potency of a particular drug as a competitive antagonist), rather than the dose ratio, was calculated for the test compound shown and described in Example 6 by schild plot calculations, as described by H. O. Schild, "pA, A New Scale for the Measurement of Drug Antagonism," Br. J. Pharmacol, 2, 189 (1947), and is reported in Table 1.

Structure (SMILES) | Writhing assay: number of mice out of eight or ten in which test compound produced analgesia ([1]; 30 mg/kg) | PGE2 antagonism in guinea pig ileum: Dose Ratio at 3 × 10^-6 M [2] | Writhing assay: number of mice out of eight or ten in which test compound produced analgesia [1] | ED50 ([1]; Mus musculus, PBQ i.p., read-out: Writhing assay: ED50 Dose (I.G.)) [mg/kg]
O=C1OC(c2ccncc2)c2c(Cl)ccc3c2N1Cc1ccccc1O3 (single isomer, unassigned; (-)) [Compound 5b, (-)-4-chloro-3-(4-pyridyl)-1H,3H,12H-[3,1]-benzoxazino[8,1-b,c][1, 4]benzoxazepin-1-one] | 4/10 | 80.5 | – | –
O=C1OC(c2ccccc2)c2c(Cl)ccc3c2N1Cc1ccccc1O3 (stereo not shown) [Compound 2, 4-chloro-3-phenyl-1H,3H,12H-[3,1]-benzoxazino[8,1-b,c][1,4]benzoxazepin-1-one] | – | 29.2 | 1/10 | –
O=C1OC(c2ccncc2)c2c(Cl)ccc3c2N1Cc1ccccc1O3 (stereo not shown) [Compound 5, 4-chloro-3-(4-pyridyl)-1H,3H,12H-[3,1]-benzoxazino-[8,1-b,c][1,4]benzoxazepin-1-one] | – | 10.93 | 10/10 | 3.7
O=C1O[C@@H](c2ccncc2)[C@H]2c3ccccc3Oc3ccc(Cl)cc3N12 [Compound 6a, (+)-trans-6-chloro-1,13b-dihydro-1-(4-pyridyl)-3H-dibenz[b,f]oxazolo[3,4-d][1,4]oxazepin-3-one] | 2/10 | 23.4 | – | –
O=C1O[C@@H](c2ccncc2)[C@H]2c3ccccc3Oc3ccc(Cl)cc3N12 [Compound 6b, (-)-trans-6-chloro-1,13b-dihydro-1-(4-pyridyl)-3H-dibenz[b,f]oxazolo[3,4-d][1,4]oxazepin-3-one] | 6/10 | 2.7 | – | –
O=C1OC(c2ccccn2)C2c3ccccc3Oc3ccc(Cl)cc3N12 (stereo not shown) [Compound 10, 6-chloro-1,13b-dihydro-1-(2-pyridyl)-3H-dibenz-[b,f]oxazolo[3,4-d][1,4]oxazepin-3-one] | – | 28.94 | 1/10 | –
